Here are results for 4 compounds from ChEMBL document CHEMBL5465560, “Selectivity Literature for EUbOPEN Chemogenomic Library” (2024).

Assay [1] has as its target T1, Myosin-IIIb (Homo sapiens) (UniProt Q8WXR4).
T1 sequence (whole entry): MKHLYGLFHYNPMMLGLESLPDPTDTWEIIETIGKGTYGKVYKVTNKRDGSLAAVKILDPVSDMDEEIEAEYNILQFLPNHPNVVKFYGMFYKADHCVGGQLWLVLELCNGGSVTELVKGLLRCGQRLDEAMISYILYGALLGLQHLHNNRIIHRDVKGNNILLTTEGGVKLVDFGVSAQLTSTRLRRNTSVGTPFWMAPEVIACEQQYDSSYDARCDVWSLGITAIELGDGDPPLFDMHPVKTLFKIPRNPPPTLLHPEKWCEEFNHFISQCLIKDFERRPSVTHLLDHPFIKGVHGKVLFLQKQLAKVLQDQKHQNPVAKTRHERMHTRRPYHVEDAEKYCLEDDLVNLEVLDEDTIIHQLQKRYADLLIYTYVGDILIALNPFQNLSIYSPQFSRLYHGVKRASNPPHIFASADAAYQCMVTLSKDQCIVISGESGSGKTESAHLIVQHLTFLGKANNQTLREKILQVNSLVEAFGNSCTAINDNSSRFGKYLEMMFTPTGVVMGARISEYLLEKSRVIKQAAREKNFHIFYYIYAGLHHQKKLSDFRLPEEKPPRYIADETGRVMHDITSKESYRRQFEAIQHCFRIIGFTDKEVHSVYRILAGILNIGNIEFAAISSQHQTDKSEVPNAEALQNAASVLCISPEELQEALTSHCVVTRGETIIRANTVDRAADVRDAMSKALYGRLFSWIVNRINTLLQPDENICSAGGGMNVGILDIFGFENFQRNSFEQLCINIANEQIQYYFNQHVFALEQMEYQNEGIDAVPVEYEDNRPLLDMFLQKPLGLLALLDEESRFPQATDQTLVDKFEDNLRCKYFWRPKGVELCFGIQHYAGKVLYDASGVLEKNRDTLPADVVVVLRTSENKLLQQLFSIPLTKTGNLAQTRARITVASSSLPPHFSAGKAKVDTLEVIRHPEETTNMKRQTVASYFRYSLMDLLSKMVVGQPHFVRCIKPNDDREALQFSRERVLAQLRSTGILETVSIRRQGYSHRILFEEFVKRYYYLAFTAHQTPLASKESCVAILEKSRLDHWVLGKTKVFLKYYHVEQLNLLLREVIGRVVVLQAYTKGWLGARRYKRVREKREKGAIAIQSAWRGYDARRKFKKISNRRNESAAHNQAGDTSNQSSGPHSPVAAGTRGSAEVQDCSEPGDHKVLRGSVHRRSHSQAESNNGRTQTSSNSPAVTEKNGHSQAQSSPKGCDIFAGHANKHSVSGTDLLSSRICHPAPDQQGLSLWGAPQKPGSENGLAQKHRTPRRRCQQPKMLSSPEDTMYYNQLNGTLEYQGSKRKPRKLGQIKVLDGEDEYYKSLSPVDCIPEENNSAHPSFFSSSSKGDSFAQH
Kind of assay: Selectivity interaction (KinomeScan (DiscoverX)) EUB0000595a MYO3B. The note with it: at 10 µM.

Assay [2] has as its target Serine/threonine-protein kinase pim-3 (Homo sapiens) (UniProt Q86V86). The following applies: at 10 µM.
The target in assay [3] is Ribosomal protein S6 kinase alpha-4 (Homo sapiens) (UniProt O75676). Kind of assay: Selectivity interaction (KinomeScan (DiscoverX)) EUB0000045b RPS6KA4.
Assay [4] has as its target T2, Tyrosine-protein kinase JAK3 (Homo sapiens) (UniProt P52333).
T2 sequence (whole entry): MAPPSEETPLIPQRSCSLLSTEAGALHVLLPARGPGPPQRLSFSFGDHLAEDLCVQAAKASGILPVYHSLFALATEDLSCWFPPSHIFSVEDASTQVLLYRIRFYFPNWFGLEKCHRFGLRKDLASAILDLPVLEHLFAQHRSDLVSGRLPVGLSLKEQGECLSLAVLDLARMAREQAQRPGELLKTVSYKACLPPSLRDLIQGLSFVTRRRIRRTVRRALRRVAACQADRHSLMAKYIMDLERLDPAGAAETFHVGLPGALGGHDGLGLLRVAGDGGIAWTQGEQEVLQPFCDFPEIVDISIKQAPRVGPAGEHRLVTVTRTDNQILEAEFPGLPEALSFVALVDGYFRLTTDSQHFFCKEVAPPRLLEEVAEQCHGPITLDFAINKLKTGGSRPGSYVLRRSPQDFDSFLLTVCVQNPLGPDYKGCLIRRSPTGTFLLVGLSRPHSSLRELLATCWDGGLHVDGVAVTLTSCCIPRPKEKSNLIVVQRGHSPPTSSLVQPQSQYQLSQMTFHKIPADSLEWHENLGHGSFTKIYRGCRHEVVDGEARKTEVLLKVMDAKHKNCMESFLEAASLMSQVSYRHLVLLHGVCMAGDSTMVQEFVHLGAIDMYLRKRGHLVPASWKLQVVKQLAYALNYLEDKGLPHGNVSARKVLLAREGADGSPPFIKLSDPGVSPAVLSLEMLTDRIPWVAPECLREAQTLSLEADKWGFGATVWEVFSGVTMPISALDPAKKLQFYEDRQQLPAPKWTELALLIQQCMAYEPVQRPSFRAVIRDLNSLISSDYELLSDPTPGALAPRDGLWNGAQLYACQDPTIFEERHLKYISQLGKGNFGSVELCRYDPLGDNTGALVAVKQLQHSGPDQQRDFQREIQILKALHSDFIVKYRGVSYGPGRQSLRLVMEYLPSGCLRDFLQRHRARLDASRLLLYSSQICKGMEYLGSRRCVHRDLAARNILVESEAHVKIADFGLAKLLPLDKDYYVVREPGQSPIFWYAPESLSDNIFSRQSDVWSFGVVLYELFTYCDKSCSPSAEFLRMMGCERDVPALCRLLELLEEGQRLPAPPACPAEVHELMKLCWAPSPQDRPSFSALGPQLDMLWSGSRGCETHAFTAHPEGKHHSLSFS
The assay is described as follows: Selectivity interaction (KinomeScan (DiscoverX)) EUB0000045b JAK3.

The target in assay [5] is T3, Myosin light chain kinase family member 4 (Homo sapiens) (UniProt Q86YV6).
T3 sequence (whole entry): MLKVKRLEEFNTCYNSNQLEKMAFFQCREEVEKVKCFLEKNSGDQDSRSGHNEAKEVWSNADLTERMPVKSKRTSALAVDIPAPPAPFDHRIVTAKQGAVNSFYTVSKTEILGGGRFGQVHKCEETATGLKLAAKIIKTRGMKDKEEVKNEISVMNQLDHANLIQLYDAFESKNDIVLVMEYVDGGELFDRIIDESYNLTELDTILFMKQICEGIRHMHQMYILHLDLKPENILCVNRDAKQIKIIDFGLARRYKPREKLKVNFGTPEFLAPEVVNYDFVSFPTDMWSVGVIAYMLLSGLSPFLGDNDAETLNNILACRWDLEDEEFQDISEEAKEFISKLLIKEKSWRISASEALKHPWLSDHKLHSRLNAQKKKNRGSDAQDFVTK
The assay is described as follows: Selectivity interaction (KinomeScan (DiscoverX)) EUB0000618a MYLK4. The following applies: at 10 µM.

Sequence of Ribosomal protein S6 kinase alpha-4 (Homo sapiens) (O75676 whole entry, looked up): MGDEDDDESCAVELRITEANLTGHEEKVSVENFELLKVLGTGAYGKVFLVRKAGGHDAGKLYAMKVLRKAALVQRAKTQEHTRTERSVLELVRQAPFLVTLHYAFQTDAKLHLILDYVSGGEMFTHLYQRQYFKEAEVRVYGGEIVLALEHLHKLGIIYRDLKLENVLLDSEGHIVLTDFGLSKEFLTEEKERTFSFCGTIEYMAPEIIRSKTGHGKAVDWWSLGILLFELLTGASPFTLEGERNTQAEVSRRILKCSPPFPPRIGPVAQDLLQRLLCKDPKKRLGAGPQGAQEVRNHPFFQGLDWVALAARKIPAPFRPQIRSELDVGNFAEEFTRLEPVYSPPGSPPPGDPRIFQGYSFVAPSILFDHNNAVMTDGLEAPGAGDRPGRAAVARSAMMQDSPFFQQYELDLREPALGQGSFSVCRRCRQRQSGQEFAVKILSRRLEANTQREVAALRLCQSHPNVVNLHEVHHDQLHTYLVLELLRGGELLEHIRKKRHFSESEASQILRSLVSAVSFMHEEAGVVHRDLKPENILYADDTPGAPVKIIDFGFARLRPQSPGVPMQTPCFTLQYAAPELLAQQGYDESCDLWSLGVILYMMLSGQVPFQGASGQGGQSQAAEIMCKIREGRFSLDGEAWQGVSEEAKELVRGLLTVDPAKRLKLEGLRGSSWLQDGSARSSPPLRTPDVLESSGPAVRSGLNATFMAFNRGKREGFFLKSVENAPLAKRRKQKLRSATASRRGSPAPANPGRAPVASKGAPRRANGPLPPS

`COCC(=O)NC/C=C/c1ccc2ncnc(Nc3ccc(Oc4ccc(C)nc4)c(C)c3)c2c1` [CP-724714]: the % of control in assay [1] was 100%.

For the compound `Cc1cc([C@@H](C)Nc2ccccc2C(=O)O)c2nc(N3CCOCC3)cc(=O)n2c1` [AZD-6482], the % of control in assay [2] amounted to 100%.

With `C=CC(=O)Nc1cc(-n2c(=O)ccc3cnc4ccc(-c5ccc(NS(C)(=O)=O)cc5)cc4c32)ccc1C`, the % of control in assay [3] (at 1 µM) turned out to be 100%; in assay [3] (at 10 µM) it was 100%; in assay [4] (at 1 µM), 6.6%; in assay [4] (at 10 µM), 0.6%.

Compound `O[C@H]1CC[C@H](Nc2ncc3nc(Nc4c(F)cc(F)cc4F)n([C@H]4CCOC4)c3n2)CC1` showed a % of control in assay [5] of 100%.
